Assay: gradient 5% acetonitrile 3 min, to 50% in 2 min, to 85% in 15 min, held 3 min, 100 µL/min
Settings: column: Zorbax Extend-C18 2.1 x 50 mm; eluents: water / acetonitrile, 0.1% formic acid
How it was run: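 Standards, all pure, were combined into mixtures of ~100 molecules and run at 100 μL/min on a Zorbax Extend-C18 column (2.1 × 50 mm, 1.8 μm) with water and acetonitrile, each containing 0.1% formic acid. A coupled quadrupole time-of-flight mass spectrometer operated in positive and negative ionization mode. Retention time values come from computationally picked adduct peaks, each inspected manually.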

Row | RP-LC retention time | SMILES
1 | 1090 s | Cc1ccccc1NC(=O)C(C)n1nc(C)c2nn(-c3ccccc3)c(-n3cccc3)c2c1=O (centres undefined)
2 | 769 s | COCC1CCN(C(=O)NCc2cccc3ccccc23)CC1
3 | 762 s | CC(C)c1c(C(=O)O)nnn1-c1ccc(F)c(F)c1
4 | 869 s | COc1cccc(OCC(=O)N2CC(=O)Nc3ccccc32)c1
5 | 818 s | O=C(Cn1nc(N2CCSCC2)c2ccccc2c1=O)Nc1ccc2c(c1)OCCO2
6 | 1180 s | COc1cccc(C2Cn3nnc(-c4nc(-c5ccccc5C)no4)c3CO2)c1 (centres undefined)
7 | 687 s | COc1ccc(S(=O)(=O)Nc2cccnc2Nc2ccc(O)cc2)cc1
8 | 769 s | O=C(NCc1cccs1)C1CCN(c2nnc(-c3ccccc3)o2)CC1
9 | 572 s | Cc1nc(-c2nnc(NC(=O)C3CCN(S(C)(=O)=O)CC3)o2)cs1
10 | 1020 s | COC(=O)C1=C(C)NC(SCC(=O)NC2CCCCC2)=C(C#N)C1c1ccccc1F (centres undefined)
11 | 686 s | CCOCCCNC(=O)c1ccc2c(c1)NC(=O)C1CCCCN21 (centres undefined)
12 | 926 s | COc1ccc(Cl)cc1NC(=O)CN1C(=O)CC(C)Sc2ccccc21 (centres undefined)
13 | 939 s | CCc1noc(C2CCCCN2Cc2cc(F)ccc2F)n1 (centres undefined)
14 | 785 s | CCc1ccc(N2CCn3c2nc2c3c(=O)n(CC(=O)O)c(=O)n2C)cc1
15 | 801 s | COc1ccc(-c2ccc(S(=O)(=O)NCc3ccc(C(=O)O)cc3)cc2)cc1
16 | 951 s | COc1ccc(Cl)cc1Nc1ccnc2c1c(=O)n(C)c(=O)n2C
17 | 817 s | Cc1ccc(F)cc1S(=O)(=O)Nc1cccn2c(C3CCC3)nnc12
18 | 1000 s | O=C1C2C=CC=CC2=NC(=S)N1CCN1CCC(=C(c2ccc(F)cc2)c2ccc(F)cc2)CC1 (centres undefined)
19 | 1070 s | Cc1sc2ccn(CC(C)C)c(=O)c2c1C(=O)NCc1cc(F)cc(F)c1
20 | 594 s | CC(C)NC(=O)CN1CCN(Cc2nc(-c3ccc(N4CCCCC4)nc3)no2)CC1
21 | 684 s | COc1cc(OC)cc(C(=O)N2C[C@@H]3C[C@H](NC(=O)c4ccccc4)[C@H]2C3)c1
22 | 712 s | COCCN1C(=O)[C@H]2CN(S(=O)(=O)c3ccccc3)C[C@H]2C1=O

Row | RP-LC retention time | SMILES
23 | 814 s | COCCN1C(=O)c2ccccc2C(C(=O)Nc2ccc3[nH]ccc3c2)C12CCCC2 (centres undefined)
24 | 614 s | CCN1CCN(CCNC(=O)c2cc3n(n2)CCCN(Cc2ccc(C)cc2)C3=O)CC1
25 | 1170 s | CCOc1ccccc1-c1noc(Cn2cnc3c(cnn3-c3ccc(CC)cc3)c2=O)n1
26 | 577 s | CC(C)Cn1c(=O)c(N2CCN(C(=O)Nc3ccccc3)CC2)nc2ccncc21
27 | 936 s | CC(=O)Nc1cccc(-c2nc(-c3ccc4c(c3)oc(=O)n4C(C)C)no2)c1
28 | 721 s | CCOc1ccc(CC(=O)NC2CCN(c3cc(-c4ccccc4)[nH]n3)C2)cc1OCC (centres undefined)
29 | 752 s | CCOc1ccc(NC(=O)N2CCN(c3nc4cccnc4s3)CC2)cc1
30 | 1210 s | Cc1cccc(-c2nc(Cn3nnc(C(=O)NCc4cccc(Br)c4)c3C)c(C)o2)c1
31 | 984 s | COc1ccc(-c2noc(C3CCCN3C(=O)c3sccc3C)n2)cc1 (centres undefined)
32 | 701 s | O=C(Cn1nc2n(c1=O)CCCCC2)Nc1cccc(F)c1
33 | 1230 s | Cn1cc(C2=CCN(S(=O)(=O)c3ccc(C(C)(C)C)cc3)CC2)c2cccnc21
34 | 865 s | COc1ccc(NC(=O)Cn2c(C)cc(-c3nnc(-c4ccco4)o3)c2C)cc1F
35 | 1140 s | Cc1ccc(-c2noc(-c3cccc(S(=O)(=O)Nc4ccc5c(c4)OCCO5)c3)n2)cc1
36 | 862 s | N#Cc1ccc(C(=O)N2CCC(CCOCC3CC3)CC2)cc1
37 | 896 s | CCc1nnc2ccc(-c3noc(-c4cc(F)ccc4F)n3)cn12
38 | 900 s | Cc1noc(-c2cc(=O)n(CC(=O)Nc3ccccc3Cl)c3ccccc23)n1
39 | 927 s | Cc1ccc(N2CCOCC2)c2c1C(=O)c1ccccc1C2=O
40 | 820 s | CCNC(=O)c1cc(-c2ccc(F)cc2)n(C)c1C
41 | 939 s | O=c1ccc(-c2ccc3c(c2)OCO3)nn1Cc1nc(-c2ccccc2)no1
42 | 640 s | Cc1n[nH]c(C)c1S(=O)(=O)Nc1ccc(CC(=O)NCc2cccs2)cc1
43 | 714 s | O=C(NCCCN1CCCC1=O)c1csc(N2CCN(c3ccc(F)cc3)CC2)n1
44 | 870 s | COC(=O)c1ccc(-c2nc3cnccn3c2Nc2cc(OC)ccc2OC)cc1

Row | RP-LC retention time | SMILES
45 | 704 s | COCCCNC(=O)C1c2ccccc2C(=O)N1Cc1ccccc1 (centres undefined)
46 | 1040 s | Cc1cccc(Cn2nc3ccc(S(=O)(=O)N4CCC(C)CC4)cn3c2=O)c1
47 | 799 s | O=C(C1CC(=O)N(c2n[nH]c3ccccc23)C1)N1CCN(c2ccc(Cl)cc2)CC1 (centres undefined)
48 | 1050 s | COc1ccc(N2CCN(c3cc(SCC(=O)Nc4ccc(F)cc4F)ncn3)CC2)cc1
49 | 922 s | Cc1cc(Cl)ccc1NC(=O)N1C[C@@H]2C[C@H](NS(=O)(=O)c3ccccc3)[C@H]1C2
50 | 938 s | Cc1cc(-c2nnc(-c3ccccc3)o2)c(C)n1CC(=O)Nc1ccc(F)cc1
51 | 1010 s | CC1Oc2ccc(-c3csc(NC(=O)CCc4ccccc4)n3)cc2N(C)C1=O (centres undefined)
52 | 838 s | Cc1nnc2ccc(-c3noc(Cc4ccccc4Br)n3)cn12
53 | 637 s | Cc1cc(C(=O)NCc2ccc3c(c2)OCO3)c2ccccc2n1
54 | 730 s | COCCN1CC2(CCN(S(=O)(=O)c3cccc(Cl)c3)CC2)C1c1ccccc1 (centres undefined)
55 | 944 s | CCOC(=O)c1nc(NCCCOC)c2c(-c3ccc(F)cc3)noc2n1
56 | 628 s | COCc1nncn1C1CCN(C(=O)c2cc(F)cc(F)c2)CC1
57 | 736 s | COc1cccc(-c2nc(-c3ccc(-n4ccnc4)nc3)no2)c1
58 | 827 s | Cn1c(=O)c(N2CCCC(C(=O)NCCc3ccco3)C2)nc2cccnc21 (centres undefined)
59 | 1020 s | O=C(Cc1ccccc1Cl)N1CCCC1c1nc(-c2ccccc2)no1 (centres undefined)
60 | 600 s | O=C(OCc1cc(-c2cccs2)on1)c1ccc(Cn2ccnc2)cc1
61 | 697 s | Cc1nc2c(C(=O)N3CCN(c4ccccn4)CC3)cnn2c(C)c1Cc1ccccc1Cl
62 | 820 s | Cc1nc(C)c(C(=O)Nc2ccc(F)cc2Cl)s1
63 | 885 s | COCCNC(=O)c1ccc2c(c1)CCCN2S(=O)(=O)c1ccc(Cl)cc1
64 | 1230 s | Cc1ccc(Nc2c(-c3ccc(Br)cc3)nc3cnccn23)c(Br)c1
65 | 802 s | CCCCc1nnc(NC(=O)C2CC(=O)N(CCc3c[nH]c4ccc(C)cc34)C2)s1 (centres undefined)
66 | 582 s | Cc1n[nH]c(C)c1S(=O)(=O)N1CCOCC1

Row | RP-LC retention time | SMILES
67 | 799 s | CN1CC2(CCCC2)N(C(=O)COc2ccc(Cl)cc2)CC1=O
68 | 608 s | O=C(CN1C(=O)CCC1=O)N1CCC(c2noc(-c3ccccn3)n2)C1 (centres undefined)
69 | 960 s | CC(=O)N1CCc2cc(S(=O)(=O)C(C)CC(=O)N3CCN(Cc4ccccc4)CC3)ccc21 (centres undefined)
70 | 693 s | CCn1cc(-c2ccc(C)cc2)cc1C(=O)NCCCN1CCOCC1
71 | 727 s | Cc1noc(-c2ccc(-n3cnc(C(=O)NCC4CC4)c3)nc2)n1
72 | 652 s | CCc1ccc(S(=O)(=O)N2CCc3nc(CNC(=O)C4CCC4)n(C)c3C2)cc1
73 | 882 s | Cc1ccc(CNC(=O)CCc2c(C)nn(-c3cc(N4CCCCC4)ncn3)c2C)o1
74 | 578 s | Cc1ccc(NC(=O)CC2SC3=NCCN3C2=O)cc1 (centres undefined)
75 | 1000 s | Cc1ccc(NC(=O)N2CCCC(C)(C(=O)NCc3ccccc3C)C2)c(C)c1 (centres undefined)
76 | 888 s | CSc1cccc(NC(=O)N2CCC[C@@H]2C(=O)NCc2csc(-c3ccccc3)n2)c1
77 | 715 s | c1ccc(-c2nnc(-c3ccncc3)o2)cc1
78 | 698 s | CCOc1ccc(-c2cc3n(n2)CCCN(C(=O)c2cc(C)n(C)n2)C3)cc1
79 | 728 s | O=C(Nc1cccc(Cl)c1)N1CCN(Cc2nc3ccccc3o2)CC1
80 | 596 s | CC(C)CN1CCN(Cc2nc(-c3ccc(N4CCCCC4)nc3)no2)CC1
81 | 755 s | CCN1CCCn2cc(S(=O)(=O)Nc3ccc(F)c(C)c3)cc2C1=O
82 | 758 s | O=C(NCCC1CCN(C(=O)Nc2cc(F)ccc2F)CC1)c1ccoc1
83 | 690 s | Cc1nc(C)c(-c2ccc(SCC(=O)Nc3ccc4c(c3)OCCO4)nn2)s1
84 | 732 s | COc1ccc(-c2nc(-c3ccc4ncn(C)c4c3)no2)cc1
85 | 1220 s | CCCn1cc(C(=O)Nc2cccc(F)c2)c(S(=O)(=O)N2CCC(C)CC2)n1
86 | 716 s | O=C(Nc1cccs1)Nc1ccccc1NC(=O)c1ccco1

Row | SMILES | RP-LC retention time
87 | O=C(Nc1ccc(F)cc1Cl)c1c(O)c2cccnc2n(Cc2ccccc2)c1=O | 1240 s
88 | Cc1ncc2c(n1)C[C@@H]1CC[C@H]2N1C(=O)Nc1ccccc1F | 638 s
89 | COC(=O)c1ccccc1NC(=O)CN1C(=O)CN=C(c2ccccc2)c2ccccc21 | 958 s

From the METLIN SMRT retention time set (Domingo-Almenara et al. 2019)
